# Assay results taken from patent EP4684782A1, “COSMETIC COMPOSITION FOR ANTIOXIDATION” (LG Chem, Ltd., priority 2023, dated 2025).
# Several values for one entry are separate records, joined by “and”; a condition that tells them apart may be missing. Equal values may be shown once.
# What was measured:
# [1] = DPPH radical scavenging ability (antioxidant power), absorbance at 520 nm; format: biochemical; settings: for Antioxidant power, Average: average of three measurements, 30 min; for Antioxidant power: single measurements (Once, Two times, Three times), 0.5 mM DPPH, room temperature, 30 minutes
# Protocol: The DPPH radical expresses a dark purple color. The DPPH radical is reduced by the antioxidant effective ingredient, and the dark purple color is discolored. The performance of the antioxidant effective ingredient can be measured using such characteristics.
# The 3HP aqueous solution obtained from Preparation Example 1 was prepared at five different concentrations (0 wt.%, 1 wt.%, 5 wt.%, 10 wt.%, 70 wt.%), 50 µℓ of each 3HP aqueous solution and 150 µℓ of methanol were dispensed into a 96-well plate and reacted at room temperature for 30 minutes. The absorbance (ODcontrol group, wavelength 520 nm) was repeatedly measured three times.
# A DPPH aqueous solution containing 0.5 mM DPPH (free radical, 95%, Alfa Aesar) was prepared. 50 µℓ of methanol and 150 µℓ of the DPPH aqueous solution were dispensed into a 96-well plate and reacted at room temperature for 30 minutes. The absorbance (ODnegative control group, wavelength 520 nm) was repeatedly measured three times.
# A DPPH aqueous solution containing 0.5 mM DPPH (free radical, 95%, Alfa Aesar) was prepared. The 3HP aqueous solution obtained from Preparation Example 1 was prepared at five different concentrations (0 wt.%, 1 wt.%, 5 wt.%, 10 wt.%, 70 wt.%), and 50 µℓ of each 3HP aqueous solution and 150 µℓ of the DPPH aqueous solution were dispensed into a 96-well plate and reacted at room temperature for 30 minutes. The absorbance (ODexperimental group, wavelength 520 nm) was repeatedly measured three times.
# The absorbance at a wavelength of 520 nm was measured using a micro reader.
# The DPPH radical scavenging ability (antioxidant power) of 3HP was calculated according to the following Equation 1, and the results are shown in Tables below. [formula]
# human skin tissues = test: Skin tissue cell stability experiment (explant tissue culture, HE staining); format: cell-based; settings: 3HP applied at concentrations of 1%, 5%, and 10%, tissues obtained 24 hours after application, FIG. 1
# Protocol: The human skin tissues provided for research purposes (IRB No. 4-2023-0054; Institutional Review Board, Severance Medical Center, Yonsei University College of Medicine) was defatted, and washed several times with PBS (phosphate buffered saline; Lonza) to remove residual impurities. The skin tissues were prepared into a size of 1 cm × 1 cm for each test group, and the test composition was applied to the prepared skin tissues, and PBS was applied to the negative control. The skin tissues in which the absorption of the test composition has been completed were cultured in a special medium at 37°C, 5% CO2.
# Tissues obtained 24 hours after application of the test composition were fixed with 10% formalin, and then paraffin blocks and paraffin-embedded slides were prepared. The deparaffinized tissues were stained for nuclei with hematoxylin (S3309; dako) solution, and then washed in running water. The cytoplasm was stained with eosin (318906; sigma) solution, and then the tissues were completely dehydrated through washing process and fixed using a mounting solution. The epidermis and papillary dermis of the fixed tissues were photographed at 400x magnification using an optical microscope (BX43F; OLYMPUS).
smiles,measurement,setting,value
"O=C(O)CCO [Example 3HP, 3-hydroxypropionic acid]","Antioxidant power, Average",[1]; 3HP treated concentration 1 %,0.904%
same,Antioxidant power,[1]; 3HP treated concentration 1 %,0.850% and 1.042% and 0.819%
same,"Antioxidant power, Average",[1]; 3HP treated concentration 5%,2.474%
same,Antioxidant power,[1]; 3HP treated concentration 5%,2.452% and 2.552% and 2.419%
same,"Antioxidant power, Average",[1]; 3HP treated concentration 10 %,5.175%
same,Antioxidant power,[1]; 3HP treated concentration 10 %,5.209% and 5.205% and 5.111%
same,"Antioxidant power, Average",[1]; 3HP treated concentration 70 %,21.011%
same,Antioxidant power,[1]; 3HP treated concentration 70 %,20.888% and 21.142% and 21.002%
same,DPPH radical scavenging ability,"[1]; under the treatment concentrations tested (1, 5, 10, 70 wt.%), result in words",significant DPPH radical scavenging ability was exhibited
same,damage to the epidermis and dermis or separation between tissues,human skin tissues,no damage to the epidermis and dermis or separation between tissues were observed
